The results in this text go back to patent publication US8901301B2, “Pyrrolo[2,3-]pyridine kinase inhibitors” (Plexxikon Inc., priority 2009, dated 2014).

For assay [1], the system named is Colo205 colorectal tumor cells with BRaf V600E mutation. Briefly: Colo205 xenograft mouse model. Type of assay: in vivo. To be noted: female nu/nu mice, 10 mg/kg daily for fourteen days, vs vehicle control. The protocol:
Female nu/nu mice are implanted with Colo-205 trocar fragments from donor mice, sub-cutaneous and high in the axilla. Tumor growth is monitored to approximately 100 mg size, and mice are distributed to treatment groups such that the mean tumor burden within a group is within 10% of the overall mean tumor burden. Mice are treated with vehicle control, positive control or compound (8 mice per group) in 5% DMSO and 95% CMC (1%), with compound dosed at 10 mg/kg daily for fourteen days. Mice are observed daily, with tumor burden and body weights measured twice a week. Animals with tumor burden above 1500-2000 mg and any animals in moribund condition are euthanized. The average tumor growth of vehicle control group mice is compared to the average tumor growth of the test compound mice. Percent tumor growth inhibition is calculated as 100×[(tumor growth control-tumor growth test compound)/tumor growth control].

For the next assay, the target named is Kdr (Homo sapiens, UniProt P35968). Kind of assay: Biochemical inhibitory activity, other protein kinases: Kdr. To be noted: for Kinase having IC50 of >1 μM: listing of the kinase means IC50 >1 μM.
In another assay the test system is A375 cells. Kind of assay: Cell growth inhibition (Cell Titer Glo), A375. Type of assay: cell-based. As to conditions: Homo sapiens, A-375, 72 h; B-Raf V600E cell line, 3 days. The protocol: Compounds are assessed in a variety of cell based assays, employing cells with or without B-Raf V600E mutation, for example cell lines with B-Raf V600E mutation (A375 and COLO205), as well as tumorigenic cell lines with wild-type B-RAF (SW620 and SK-MEL-2). Reagent and assay conditions are as follows:
A375 cells growth medium: • Dulbecco's modified Eagle's medium, 4 mM L-glutamine, 4.5 g/L D-glucose, 10% fetal bovine serum.
SK-MEL-2 cells growth medium: • Minimum Eagle essential medium, 2 mM L-glutamine, 1.5 g/L sodium bicarbonate, 0.1 mM non-essential amino acids, 1.0 mM sodium pyruvate, 10% fetal bovine serum. • On day 1, cells are seeded in growth media in 200 μL per well in a 96-well polystyrene tissue culture plate at 2,000 cells per well (A375, COLO205, SK-MEL-2) or 5,000 cells per well for SW620, and incubated at 37° C. and 5% CO2 overnight. • On day 2, compound at 4 mM in dimethyl sulfoxide is serially diluted 1:4 (10 μL with 30 μL dimethyl sulfoxide) seven times for a total of 8 concentration points. For each dilution point a 1 μL aliquot is added to a well containing cells (highest dilution point at 20 μM), with 1 μL of dimethyl sulfoxide as a negative control (each sample at 0.5% dimethyl sulfoxide). The cells are incubated for 3 days at 37° C. in 5% CO2. • On day 5, Cell Titer Glo (Promega) is thawed and added 100 μL to each well and the plate shaken for 1-2 minutes. The plates are incubated for 10 minutes at room temperature, then […] signal is read (e.g. on Safire reader). The measured fluoresence correlates directly with cell number, such that the reading as a function of compound concentration is used to determine the IC50 value.

For the next assay, the target named is T1, B-Raf (Homo sapiens, UniProt P15056).
T1 construct: purchased Upstate Biotechnology
Briefly: Raf biochemical kinase assay (biotin-MEK1 phosphorylation), B-Raf. As to conditions: 100 μM ATP. The protocol:
Assays for biochemical and cell based activity are known in the art, for example, as described in PCT publication WO 2007/002433, the disclosure of which is hereby incorporated by reference as it relates to such assays. For example, the biochemical activity IC50 values are determined with respect to inhibition of A-Raf kinase activity, B-Raf kinase activity, c-Raf-1 kinase activity, or B-Raf V600E kinase activity, where inhibition of phosphorylation of a peptide substrate is measured as a function of compound concentration. Compounds to be tested are diluted in dimethyl sulfoxide to a concentration of 0.1 mM. These are serially diluted 15 μL into 30 μL of dimethyl sulfoxide seven times in 96 well plates for a total of 8 dilution points, and for each dilution point 1 μL is added to a well of an assay plate. Plates are prepared such that each well in a 384 well plate contains 1 μL of compound in 10 μL volume with 0.1 ng Raf enzyme (i.e. any of A-Raf, B-Raf, c-Raf-1 or B-Raf V600E, Upstate Biotechnology or prepared by methods known to one of skill in the art), 50 mM HEPES, pH 7.0, 50 mM NaCl, 2 mM MgCl2, 1 mM MnCl2, 0.01% Tween-20, 1 mM DTT, and 100 nM biotin-MEK1 as substrate. The reaction is started with addition of 10 μL of 200 μM ATP (i.e. final 100 μM ATP). After incubation of the kinase reaction for 45 minutes at room temperature, 5 μL/well of Stop Solution is added (25 mM Hepes pH 7.5, 100 mM EDTA, 0.01% BSA with donor beads (Streptavidin coated beads, Perkin Elmer), acceptor beads (Protein A coated, Perkin Elmer), and anti phosphor MEK1/2 antibody (CellSignal), each at final concentration 10 μg/mL). The plates are incubated for 3 hours at room temperature and read on Envision reader (Perkin Elmer). Phosphorylation of Mek1 results in binding of the anti-phosphor-MEK1/2 antibody and association of the donor and acceptor beads such that signal correlates with kinase activity. The signal vs. compound concentration is used to determine the IC50.

The target in another assay is T2, CYP2C9 (Homo sapiens, UniProt P11712).
T2 construct: purchased BD Biosciences
Kind of assay: CYP inhibition (fluorescent substrate), CYP2C9. The class given is in vitro ADME. As to conditions: substrate MFC; read-out: Cyp IC50 (μM) 2C9. The protocol: CYP (Cytochrome P450) enzymes are the major drug metabolizing enzymes present in the liver. The inhibition of CYP enzyme activity (IC50) for each of CYP1A2, CYP2C19, CYP2C9, CYP2D6, CYP3A4(BFC) and CYP3A4(BQ) is determined for compounds, where inhibition of metabolism of a known substrate leads to a decrease in the fluorescence of the metabolized product. The fluorescence of the product is monitored as a function of compound concentration. Compounds are dissolved in dimethyl sulfoxide to a concentration of 100 mM. These are diluted 1 μL into 82 μL of acetonitrile. An 11 μL aliquot of this solution is then added to 204 μL of cofactor mix (1.3% NADPH Regeneration system Solution A, 1.04% NADPH Regeneration system Solution B from BD Biosciences, 5% acetonitrile and 0.05% dimethyl sulfoxide). These are then serially diluted 1:1 (160 μL to 160 μL co-factor mix) for a total of 10 points. A 10 μL aliquot of this final mixture is dispensed into 384 well assay plates and incubated for 10 minutes at 37° C. […] Assay plates are incubated at 37° C. (CYP1A2-15 min; CYP2C9-45 min; CYP2C19, 2D6 and 3A4-30 min) and read in a Tecan Safire 2 plate reader (CYP1A2, 2C19 and 3A4 409 ex/460 em; CYP2C9 and 2D6 409 ex/530 em). The signal versus compound concentration is used to determine the IC50. The enzymes and substrates for this assay are obtained from BD Biosciences.

T2 sequence (P11712 whole entry): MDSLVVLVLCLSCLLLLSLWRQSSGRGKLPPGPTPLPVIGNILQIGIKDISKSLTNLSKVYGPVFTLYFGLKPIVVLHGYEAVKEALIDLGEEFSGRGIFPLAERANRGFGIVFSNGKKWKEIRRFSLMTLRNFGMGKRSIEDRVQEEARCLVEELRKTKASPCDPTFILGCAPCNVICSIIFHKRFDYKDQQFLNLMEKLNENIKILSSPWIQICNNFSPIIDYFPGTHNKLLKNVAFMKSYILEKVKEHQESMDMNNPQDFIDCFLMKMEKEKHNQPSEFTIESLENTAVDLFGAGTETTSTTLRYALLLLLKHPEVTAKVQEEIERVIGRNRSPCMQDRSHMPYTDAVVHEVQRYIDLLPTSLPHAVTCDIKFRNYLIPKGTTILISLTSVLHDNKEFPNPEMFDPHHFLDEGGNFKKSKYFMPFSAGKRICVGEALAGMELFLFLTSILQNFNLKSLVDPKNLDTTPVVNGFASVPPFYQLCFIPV
T1 sequence (P15056 whole entry): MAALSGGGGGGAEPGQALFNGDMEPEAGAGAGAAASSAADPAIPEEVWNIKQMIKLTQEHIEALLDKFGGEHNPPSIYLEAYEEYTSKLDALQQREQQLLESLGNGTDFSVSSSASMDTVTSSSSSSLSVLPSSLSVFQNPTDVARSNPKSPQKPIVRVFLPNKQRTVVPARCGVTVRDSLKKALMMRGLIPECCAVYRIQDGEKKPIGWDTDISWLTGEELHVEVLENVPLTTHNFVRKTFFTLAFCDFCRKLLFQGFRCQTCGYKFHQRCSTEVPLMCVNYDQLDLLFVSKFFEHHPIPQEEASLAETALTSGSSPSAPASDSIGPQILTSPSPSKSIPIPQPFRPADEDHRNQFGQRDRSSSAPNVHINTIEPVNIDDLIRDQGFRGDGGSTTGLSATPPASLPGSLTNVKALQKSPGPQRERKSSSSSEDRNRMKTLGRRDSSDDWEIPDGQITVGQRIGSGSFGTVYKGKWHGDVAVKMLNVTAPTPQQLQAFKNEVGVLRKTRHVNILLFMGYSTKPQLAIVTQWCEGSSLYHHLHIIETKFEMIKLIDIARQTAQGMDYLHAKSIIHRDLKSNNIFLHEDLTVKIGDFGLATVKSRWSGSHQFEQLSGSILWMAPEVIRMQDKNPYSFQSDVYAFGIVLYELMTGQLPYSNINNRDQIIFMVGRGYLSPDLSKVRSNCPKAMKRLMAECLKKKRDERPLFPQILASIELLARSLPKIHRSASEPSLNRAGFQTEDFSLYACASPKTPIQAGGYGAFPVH
Sequence of Kdr (P35968 20-1356, species assumed): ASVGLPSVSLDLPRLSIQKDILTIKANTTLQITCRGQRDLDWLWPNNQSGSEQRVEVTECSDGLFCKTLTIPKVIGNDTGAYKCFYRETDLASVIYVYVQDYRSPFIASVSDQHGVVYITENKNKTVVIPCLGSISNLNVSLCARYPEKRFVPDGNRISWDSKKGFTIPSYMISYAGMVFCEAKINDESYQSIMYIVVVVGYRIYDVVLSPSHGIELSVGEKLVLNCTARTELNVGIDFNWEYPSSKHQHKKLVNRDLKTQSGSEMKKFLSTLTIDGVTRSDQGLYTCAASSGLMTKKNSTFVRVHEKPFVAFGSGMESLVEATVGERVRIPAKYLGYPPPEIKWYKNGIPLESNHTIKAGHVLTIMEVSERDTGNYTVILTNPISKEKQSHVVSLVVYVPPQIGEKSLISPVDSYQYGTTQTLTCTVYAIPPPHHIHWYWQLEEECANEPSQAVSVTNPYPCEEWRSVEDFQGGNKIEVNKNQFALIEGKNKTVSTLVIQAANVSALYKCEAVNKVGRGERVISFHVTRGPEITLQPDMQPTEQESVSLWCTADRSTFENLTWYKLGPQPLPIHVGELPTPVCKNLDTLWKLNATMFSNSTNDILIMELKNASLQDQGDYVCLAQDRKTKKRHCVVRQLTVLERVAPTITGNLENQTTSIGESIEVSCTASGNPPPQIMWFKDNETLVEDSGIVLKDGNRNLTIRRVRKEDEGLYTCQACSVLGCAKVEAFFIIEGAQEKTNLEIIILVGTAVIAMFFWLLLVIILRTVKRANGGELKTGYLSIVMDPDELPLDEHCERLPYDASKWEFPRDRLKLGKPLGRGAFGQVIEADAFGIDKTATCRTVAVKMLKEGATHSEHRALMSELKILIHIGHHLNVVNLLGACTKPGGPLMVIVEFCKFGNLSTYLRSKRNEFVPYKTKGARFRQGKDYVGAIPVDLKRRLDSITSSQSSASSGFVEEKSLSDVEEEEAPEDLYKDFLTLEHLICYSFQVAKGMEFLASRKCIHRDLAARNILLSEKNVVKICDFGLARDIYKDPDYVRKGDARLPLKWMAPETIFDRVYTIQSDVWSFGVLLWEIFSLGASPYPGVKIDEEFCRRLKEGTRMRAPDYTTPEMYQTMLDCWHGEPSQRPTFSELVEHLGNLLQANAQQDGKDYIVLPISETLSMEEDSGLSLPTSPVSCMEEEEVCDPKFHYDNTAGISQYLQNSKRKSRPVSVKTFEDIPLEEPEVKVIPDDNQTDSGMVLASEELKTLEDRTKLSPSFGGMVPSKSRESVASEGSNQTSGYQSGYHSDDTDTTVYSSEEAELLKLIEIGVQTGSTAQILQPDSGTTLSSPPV

As for `CCCS(=O)(=O)Nc1ccc(F)c(C(=O)c2c[nH]c3ncc(-c4cnc(OC)nc4)cc23)c1F` [Compound P-0001, propane-1-sulfonic acid {2,4-difluoro-3-[5-(2-methoxy-pyrimidin-5-yl)-1H-pyrrolo[2,3-b]pyridine-3-carbonyl]-phenyl}-amide], the “% Tumor growth inhibition” value in assay [1] amounted to 43%. Moreover, the “Kinase having IC50 of >1 μM” value on Kdr was “Kdr”. The IC50 with A375 cells is below 1 µM; on B-Raf, below 0.1 µM; at CYP2C9 it was 5 to 10 µM.
Taken in the same sequence, the figures for `CCCS(=O)(=O)Nc1ccc(F)c(C(=O)c2c[nH]c3ncc(C#N)cc23)c1F` [Compound P-0002, propane-1-sulfonic acid [3-(5-cyano-1H-pyrrolo[2,3-b]pyridine-3-carbonyl)-2,4-difluoro-phenyl]-amide] were 80%, “Kdr”, below 1 µM, below 0.1 µM and 5 to 10 µM.
For the compound `CCCS(=O)(=O)Nc1cccc(C(=O)c2c[nH]c3ncc(C#N)cc23)c1F` [Compound P-0003, propane-1-sulfonic acid [3-(5-cyano-1H-pyrrolo[2,3-b]pyridine-3-carbonyl)-2-fluoro-phenyl]-amide], the “% Tumor growth inhibition” value in assay [1] came out at 91%. For the same compound, the “Kinase having IC50 of >1 μM” value at Kdr is reported as “Kdr”. Besides, the IC50 in the assay with A375 cells was below 2 µM; against B-Raf, below 1 µM; on CYP2C9 it was above 10 µM.
As to `N#Cc1cnc2[nH]cc(C(=O)c3c(F)ccc(NS(=O)(=O)c4cc(F)ccc4F)c3F)c2c1` [Compound P-0004, N-[3-(5-cyano-1H-pyrrolo[2,3-b]pyridine-3-carbonyl)-2,4-difluoro-phenyl]-2,5-difluoro-benzenesulfonamide], in assay [1], the “% Tumor growth inhibition” value was found to be 103%. Besides, the “Kinase having IC50 of <1 μM” value at Kdr (listing of the kinase means IC50 <1 μM) is recorded as “Kdr”. Further, the IC50 is below 1 µM in the assay with A375 cells, below 0.1 µM on B-Raf and above 10 µM on CYP2C9.
For `N#Cc1cnc2[nH]cc(C(=O)c3c(F)ccc(NS(=O)(=O)c4cccc(F)c4)c3F)c2c1` [Compound P-0005, N-[3-(5-cyano-1H-pyrrolo[2,3-b]pyridine-3-carbonyl)-2,4-difluoro-phenyl]-3-fluoro-benzenesulfonamide], the “% Tumor growth inhibition” value in assay [1] was 88%. Besides, at Kdr, the “Kinase having IC50 of >1 μM” value is listed as “Kdr”. The IC50 is below 1 µM in the assay on A375 cells, below 0.01 µM on B-Raf and 5 to 10 µM at CYP2C9.
As for `N#Cc1cnc2[nH]cc(C(=O)c3c(F)ccc(NS(=O)(=O)N4CCCC4)c3F)c2c1` [Compound P-0006, pyrrolidine-1-sulfonic acid [3-(5-cyano-1H-pyrrolo[2,3-b]pyridine-3-carbonyl)-2,4-difluoro-phenyl]-amide], the “% Tumor growth inhibition” value in assay [1] worked out at 82%. For the same compound, the “Kinase having IC50 of >1 μM” value on Kdr is listed as “Kdr”. The figures for the IC50 in the assay on A375 cells, against B-Raf and on CYP2C9 were below 1 µM, below 0.1 µM and above 10 µM, respectively.
Take `CN(C)S(=O)(=O)Nc1ccc(F)c(C(=O)c2c[nH]c3ncc(C#N)cc23)c1F` [Compound P-0007, N,N-dimethylamino-sulfonic acid [3-(5-cyano-1H-pyrrolo[2,3-b]pyridine-3-carbonyl)-2,4-difluoro-phenyl]-amide]: in assay [1], the “% Tumor growth inhibition” value worked out at 86%. Also, the “Kinase having IC50 of >1 μM” value on Kdr was “Kdr”. Also, the values for the IC50 with A375 cells, on B-Raf and on CYP2C9 were below 2 µM, below 1 µM and above 10 µM, respectively.
